Laboratory results as given in patent publication US5856347A, “Antibacterial preparation or bactericide comprising 2-aminothiazole derivative and/or salt thereof” (Hisamitsu Pharmaceutical Co., Inc., priority 1994, dated 1999).

Legend:
Type in all cases: cell-based
[1] = test system: Staphylococcus aureus; test: Acquisition of tolerance in Staphylococcus aureus (serial passages)
Procedure: (§1) Acquisition of Tolerance in Staphylococcus aureus and Staphylococcus epidermidis
(§2) One platinum loop of each test strain on a slant culture medium was inoculated into 10 ml of a growing medium (Trypto-Soya Broth manufactured by Nussui Pharmaceutical Co., Ltd.) and cultured at 37° C. for 18 to 20 hr. The thus obtained cultures were each diluted to obtain suspensions of about 10^8 cells/ml which were later used as a bacteria suspension for inoculation.
(§3) About 10 mg of compound No. 9 were weighed out and dissolved in such an amount of DMSO as to obtain a solution having a concentration of 12.8 mg/ml, after which the solution so obtained was subjected to stepwise two-fold dilutions with DMSO (12.8 to 0.1 mg/ml).
(§4) Separately, about 400 mg of Gentamicin sulfate (GM) were weighed and dissolved in distilled water to obtain a solution having a concentration of 409.6 mg/ml, after which the solution so obtained was subjected to stepwise two-fold dilutions with distilled water to prepare control medicinal solutions for comparison (409.6 to 0.1 mg/ml).
(§5) Each of the sample solutions thus obtained by the stepwise dilutions was added to a liquid medium (Trypto-Soya Broth manufactured by Nussui Pharmaceutical Co., Ltd.) in an amount of 0.01 volume thereof.
(§6) Each of the bacteria suspensions for inoculation was added to each of the sample-containing liquid media so prepared in an amount of 0.01. volume (about 10^6 cells/ml) of the liquid medium, and the bacteria were cultured at 37° C. for 2 to 4 days. Thereafter, the growth of bacteria was observed.

[2] = test system: Staphylococcus aureus tolerant to GM; test: Antibacterial activity against GM-tolerant Staphylococcus aureus; settings: S. aureus tolerant to GM
Procedure: (§7) Antibacterial Activity Against GM-Sensitive and Tolerant Strains of Staphylococcus aureus and Staphylococcus epidermidis
(§8) One platinum loop of each test strain on a slant culture medium was inoculated into 10 ml of a growing medium (Trypto-Soya Broth manufactured by Nussui Pharmaceutical Co., Ltd.) and cultured at 37° C. for 18 to 20 hr. The thus obtained cultures were each diluted to obtain suspensions of about 10^7 cells/ml which were later used as a bacteria suspension for inoculation.
(§9) About 10 mg of compound No. 9 were weighed out and dissolved in such an amount of DMSO as to obtain a solution having a concentration of 10 mg/ml. Separately, about 400 mg of Gentamicin sulfate (GM) were weighed out and dissolved in distilled water to obtain a solution having a concentration of 409.6 mg/ml.
(§10) Each of the sample solutions thus prepared was added to a liquid medium (broth for determination of sensitivity, manufactured by Nussui Pharmaceutical Co., Ltd.) to obtain a liquid medium containing compound No. 9 in a concentration of 128 μg/ml or GM in a concentration of 4096 μg/ml. Further, each sample-containing medium so obtained was subjected to stepwise two-fold dilutions on a microplate with wells each containing […] of the above medium (compound No. 9: 128 to 1 μg/ml, GM: 4096 to 1 μg/ml). […]

[3] = test system: Staphylococcus epidermidis tolerant to GM; test: Antibacterial activity against GM-tolerant Staphylococcus epidermidis; settings: S. epidermidis tolerant to GM
Procedure: as §7, §8, §9, §10

[4] = test system: Staphylococcus epidermidis; test: Acquisition of tolerance in Staphylococcus epidermidis (serial passages)
Procedure: as §1, §2, §3, §4, §5, §6

[5] = test system: Staphylococcus aureus: IFO 13276; test: Antibacterial activity against Staphylococcus aureus: IFO 13276 (MIC, liquid dilution); settings: S. aureus IFO 13276, 37° C., 18 to 20 hr (Table 2)
Procedure: (§11) Antibacterial Activity Against Gram-positive Bacteria
(§12) One platinum loop (oese) of a test strain on a slant culture medium was inoculated into 10 ml of each growing medium (for aerobic bacteria: Trypto-Soya Broth manufactured by Nussui Pharmaceutical Co., Ltd., for anaerobic bacteria: GAM Broth manufactured by Nussui Pharmaceutical Co., Ltd.) and cultured at. 37° C. for 18 to 20 hr. The cultures thus obtained were each diluted to obtain suspensions of about 10^7 cells/ml which were later used as a bacteria suspension for inoculation.
(§13) About 10 mg of each sample were weighed out and dissolved in such an amount of DMSO (dimethylsulfoxide) as to obtain sample solutions having a concentration of 10 mg/ml.
(§14) The sample solutions thus prepared were each added to each liquid medium (for aerobic bacteria: broth for determination of sensitivity, manufactured by Nussui Pharmaceutical Co., Ltd., for anaerobic bacteria: GAM Broth manufactured by Nussui Pharmaceutical Co., Ltd.) to obtain sample-containing medium solutions having a concentration of 128 μg/ml. Further, the thus obtained solutions were each subjected to progressive or stepwise two-fold dilutions on a microplate with wells each containing […] of the above medium (until various concentrations in a range from 128 down to 0.063 μg/ml were obtained). […]

[6] = test system: Escherichia coli: IFO 3972; test: Antibacterial activity against Gram-negative bacteria, Escherichia coli: IFO 3972 (MIC)
Procedure: Antibacterial Activity Against Gram-Negative Bacteria The procedure was performed in the same manner as Experiment Example 1.

[7] = test system: Streptococcus agalactiae: IID 1624; test: Antibacterial activity against Streptococcus agalactiae: IID 1624 (MIC); settings: Streptococcus agalactiae IID 1624, 37° C., 18 to 20 hr
Procedure: as §11, §12, §13, §14

[8] = test system: Staphylococcus aureus: IFO 13276; test: Bactericidal activity against Staphylococcus aureus: IFO 13276 (MCC); settings: S. aureus IFO 13276, 37° C., 18 to 20 hr, bactericidal (Table 8)
Procedure: (§15) Bactericidal Activity Against Gram-Positive Bacteria
(§16) One platinum loop of each test strain on a slant culture medium was inoculated into 10 ml of each growing medium (for aerobic bacteria: Trypto-Soya Broth manufactured by Nussui Pharmaceutical Co., Ltd., for anaerobic bacteria: GAM Broth manufactured by Nussui Pharmaceutical Co., Ltd.) and cultured at 37° C. for 18 to 20 hr. The thus obtained cultures were each diluted to obtain suspensions of about 10^7 cells/ml which were later used as a bacteria suspension for inoculation.
(§17) About 10 mg of each sample were weighed out and dissolved in such an amount of DMSO (dimethylsulfoxide) as to obtain solutions having a concentration of 10 mg/ml.
(§18) The sample solutions thus prepared were each added to each liquid medium (for aerobic bacteria: broth for determination of sensitivity, manufactured by Nussui Pharmaceutical Co., Ltd., for anaerobic bacteria: GAM Broth manufactured by Nussui Pharmaceutical Co., Ltd.) to obtain sample-containing medium solutions having a concentration of 128 μg/ml. […]
(§19) 5 μl of each bacteria suspension for inoculation were placed in each of the sample-containing liquid media so prepared, and the bacteria were cultured at 37° C. for 18 to 20 hr. […] The minimum concentrations of the samples, which have been judged to kill bacteria, are expressed as MCC (Minimum Cidal Concentration) in μg/ml. […]

[9] = test system: Staphylococcus epidermidis: IFO 12993; test: Bactericidal activity against Staphylococcus epidermidis: IFO 12993 (MCC); settings: S. epidermidis IFO 12993, 37° C., 18 to 20 hr, bactericidal (Table 9)
Procedure: as §15, §16, §17, §18, §19

[10] = test system: Propionibacterium acnes: Clinical isolated No. 3; test: Antibacterial activity against Propionibacterium acnes: Clinical isolated No. 3 (MIC); settings: Propionibacterium acnes clinical isolated No. 3, GAM Broth, 37° C., 18 to 20 hr
Procedure: as §11, §12, §13, §14

[11] = test system: Staphylococcus epidermidis: IFO 12993; test: Antibacterial activity against Staphylococcus epidermidis: IFO 12993 (MIC); settings: Staphylococcus epidermidis IFO 12993, 37° C., 18 to 20 hr
Procedure: as §11, §12, §13, §14

[12] = test system: Streptococcus pyogenes: IID 698; test: Antibacterial activity against Streptococcus pyogenes: IID 698 (MIC); settings: Streptococcus pyogenes IID 698, 37° C., 18 to 20 hr
Procedure: as §11, §12, §13, §14

[13] = test system: Bacillus subtilis: IFO 3134; test: Antibacterial activity against Bacillus subtilis: IFO 3134 (MIC); settings: Bacillus subtilis IFO 3134, 37° C., 18 to 20 hr
Procedure: as §11, §12, §13, §14

[14] = test system: Propionibacterium acnes: Clinical isolated No. 3; test: Bactericidal activity against Propionibacterium acnes: Clinical isolated No. 3 (MCC); settings: P. acnes clinical isolated No. 3, 37° C., 18 to 20 hr, bactericidal (Table 9)
Procedure: as §15, §16, §17, §18, §19

[15] = test system: Staphylococcus aureus sensitive to GM; test: Antibacterial activity against GM-sensitive Staphylococcus aureus; settings: S. aureus sensitive to GM, 37° C., 4 days
Procedure: as §7, §8, §9, §10

[16] = test system: Staphylococcus epidermidis sensitive to GM; test: Antibacterial activity against GM-sensitive Staphylococcus epidermidis; settings: S. epidermidis sensitive to GM, 37° C., 4 days
Procedure: as §7, §8, §9, §10

COc1ccc(-c2nc(NS(=O)(=O)C(F)(F)F)sc2-c2ccccc2)cc1 [compound 9]
acquisition of tolerance ([1]; 10 passages): did not induce bacterial tolerance until 10 passages | increase in MIC due to passages ([1]; 10 passages): neither of the strains caused a significant increase in MIC | antibacterial activity and bactericidal activity compared with GM-sensitive strains [2]: equally powerful to those against the strains sensitive to Gentamicin sulfate (GM) | antibacterial activity and bactericidal activity compared with GM-sensitive strains [3]: equally powerful to those against the strains sensitive to Gentamicin sulfate (GM) | acquisition of tolerance ([4]; 18 passages): did not induce the tolerance until 18 passages | increase in MIC due to passages ([4]; 18 passages): neither of the strains caused a significant increase in MIC

Gentamicin sulfate [GM]
MIC (Minimum Inhibitory Concentration) [5]: 2 mg/L | acquisition of tolerance ([1]; 10 passages): highly induced the tolerance | MIC after passages ([1]; 10 passages in medium containing GM): about 1000 μg/ml | MIC (Minimum Inhibitory Concentration) [6]: 2 mg/L | MIC (Minimum Inhibitory Concentration) [7]: 16 mg/L | MCC (Minimum Cidal Concentration), column head prints MIC [8]: 128 mg/L | MIC (Minimum Inhibitory Concentration) ([2]; 37° C., 4 days): 2048 mg/L | MIC (Minimum Inhibitory Concentration) ([3]; 37° C., 4 days): 1024 mg/L | MCC (Minimum Cidal Concentration), column head prints MIC [9]: 64 mg/L | MIC (Minimum Inhibitory Concentration) [10]: 32 mg/L | acquisition of tolerance ([4]; 18 passages): highly induced the tolerance | MIC after passages ([4]; 18 passages in medium containing GM): about 1000 μg/ml | MIC (Minimum Inhibitory Concentration) [11]: 0.5 mg/L | MIC (Minimum Inhibitory Concentration) [12]: 2 mg/L | MIC (Minimum Inhibitory Concentration) [13]: 0.25 mg/L | MCC (Minimum Cidal Concentration), column head prints MIC [14]: 64 mg/L | MIC (Minimum Inhibitory Concentration) [15]: 2 mg/L | MIC (Minimum Inhibitory Concentration) [16]: 0.5 mg/L
